Assay results: PubChem BioAssay (NCI)
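GI50 marks 50% less growth. The concentration for full growth arrest is given as TGI.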

Legend:
Assay in all cases: inhibition of tumour cell growth, NCI panel, 384-well format
[1] = test system: K-562 leukemia
[2] = test system: NCI-H322M lung
[3] = test system: NCI-H522 lung
[4] = test system: SF-268 CNS
[5] = test system: SW-620 colon
[6] = test system: NCI-H226 lung
[7] = test system: PC-3 prostate
[8] = test system: COLO 205 colon
[9] = test system: HOP-62 NSCLC
[10] = test system: NCI-H460 NSCLC
[11] = test system: MDA-MB-435 melanoma
[12] = test system: M14 melanoma
[13] = test system: NCI-H23 lung
[14] = test system: ACHN renal
[15] = test system: BT-549 breast
[16] = test system: SF-539 CNS
[17] = test system: A549 NSCLC
[18] = test system: 786-0 renal
[19] = test system: HL-60(TB) leukemia
[20] = test system: A498 renal
[21] = test system: HCC-2998 colon
[22] = test system: OVCAR-8 ovarian
[23] = test system: CAKI-1 renal
[24] = test system: UO-31 renal
[25] = test system: SF-295 CNS
[26] = test system: SK-MEL-5 melanoma
[27] = test system: TK-10 renal
[28] = test system: U251 glioblastoma
[29] = test system: IGROV1 ovarian
[30] = test system: UACC-257 melanoma
[31] = test system: SNB-75 CNS
[32] = test system: HOP-92 NSCLC
[33] = test system: SK-OV-3 ovarian
[34] = test system: EKVX NSCLC
[35] = test system: MOLT-4 leukemia
[36] = test system: KM12 colon
[37] = test system: RXF 393 renal
[38] = test system: T-47D breast
[39] = test system: SN12C renal
[40] = test system: OVCAR-4 ovarian
[41] = test system: MDA-MB-468 breast
[42] = test system: SNB-19 CNS
[43] = test system: NCI/ADR-RES ovarian
[44] = test system: MDA-MB-231 breast
[45] = test system: HT29 colon
[46] = test system: HCT-15 colon
[47] = test system: MALME-3M melanoma
[48] = test system: SK-MEL-28 melanoma
[49] = test system: OVCAR-3 ovarian
[50] = test system: RPMI-8226 leukemia
[51] = test system: SR leukemia
[52] = test system: CCRF-CEM leukemia
[53] = test system: HS 578T breast
[54] = test system: OVCAR-5 ovarian
[55] = test system: MCF7 breast
[56] = test system: DU-145 prostate
[57] = test system: HCT-116 colon
[58] = test system: LOX IMVI melanoma

With `CCN1C(=O)CNc2ncc(-c3ccc(-c4ncn[nH]4)nc3C)nc21` the GI50 [1] was 0.0465 µM, the TGI [1] was 1.7 µM and the GI50 [2] was 0.0277 µM. It also gave a TGI [2] of 0.507 µM, a GI50 [3] of 0.014 µM and a TGI [3] of 0.134 µM. It also gave a GI50 [4] of 0.0186 µM, a TGI [4] of 0.0526 µM and a GI50 [5] of 0.032 µM. The TGI [5] was 1.13 µM, the GI50 [6] was 0.0183 µM and the TGI [6] was 0.0696 µM. For the same molecule, the GI50 [7] was 0.0105 µM, the TGI [7] was 0.0482 µM and the GI50 [8] was 0.0218 µM. It also gave a TGI [8] of 0.145 µM, a GI50 [9] of 0.0168 µM and a TGI [9] of 0.049 µM. It also gave a GI50 [10] of 0.0107 µM, a TGI [10] of 0.146 µM and a GI50 [11] of 0.0363 µM. It also gave a TGI [11] of 0.284 µM, a GI50 [12] of 0.0187 µM and a TGI [12] of 0.42 µM. The GI50 [13] was 0.0184 µM, the TGI [13] was 0.0524 µM and the GI50 [14] was 0.02 µM. It also gave a TGI [14] of 0.094 µM, a GI50 [15] of 0.0158 µM and a TGI [15] of 0.0531 µM. For the same molecule, the GI50 [16] was 0.036 µM, the TGI [16] was 0.271 µM and the GI50 [17] was 0.0275 µM. The TGI [17] was 0.181 µM, the GI50 [18] was 0.0462 µM and the TGI [18] was 0.375 µM. The GI50 [19] was 0.0259 µM, the TGI [19] was 0.0598 µM and the GI50 [20] was 0.0141 µM. The TGI [20] was 0.082 µM, the GI50 [21] was 0.0526 µM and the TGI [21] was 0.285 µM. It also gave a GI50 [22] of 0.0327 µM, a TGI [22] of 1.07 µM and a GI50 [23] of 0.0184 µM. It also gave a TGI [23] of 0.0533 µM, a GI50 [24] of 0.0179 µM and a TGI [24] of 0.091 µM. For the same molecule, the GI50 [25] was < 0.01 µM, the TGI [25] was 0.0328 µM and the GI50 [26] was < 0.01 µM. The TGI [26] was 0.0399 µM, the GI50 [27] was 0.0234 µM and the TGI [27] was 0.143 µM. The GI50 [28] was 0.0385 µM, the TGI [28] was 0.217 µM and the GI50 [29] was 0.0124 µM. The TGI [29] was 0.0467 µM, the GI50 [30] was 0.0402 µM and the TGI [30] was 0.27 µM. The GI50 [31] was < 0.01 µM, the TGI [31] was 0.0379 µM and the GI50 [32] was 0.0196 µM. It also gave a TGI [32] of 0.145 µM, a GI50 [33] of 0.0217 µM and a TGI [33] of 0.184 µM. It also gave a GI50 [34] of 0.0191 µM, a TGI [34] of 0.115 µM and a GI50 [35] of 0.0118 µM. It also gave a TGI [35] of 0.0274 µM, a GI50 [36] of 0.028 µM and a TGI [36] of 1.42 µM. The GI50 [37] was 0.0221 µM, the TGI [37] was 0.0639 µM and the GI50 [38] was < 0.01 µM. It also gave a TGI [38] of 0.0343 µM, a GI50 [39] of 0.0282 µM and a TGI [39] of 0.333 µM. It also gave a GI50 [40] of 0.0154 µM, a TGI [40] of 0.178 µM and a GI50 [41] of 0.016 µM. The TGI [41] was 0.0751 µM, the GI50 [42] was 0.0646 µM and the TGI [42] was 0.706 µM. The GI50 [43] was 0.0372 µM, the TGI [43] was 0.22 µM and the GI50 [44] was 0.0231 µM. The TGI [44] was 12.7 µM, the GI50 [45] was 0.0427 µM and the TGI [45] was 1.74 µM. For the same molecule, the GI50 [46] was 0.032 µM, the TGI [46] was 1.04 µM and the GI50 [47] was < 0.01 µM. The TGI [47] was 0.041 µM, the GI50 [48] was 0.0235 µM and the TGI [48] was 0.174 µM. The GI50 [49] was 0.0298 µM, the TGI [49] was 0.227 µM and the GI50 [50] was < 0.01 µM. The TGI [50] was 0.0123 µM, the GI50 [51] was 0.0111 µM and the TGI [51] was 0.0249 µM. It also gave a GI50 [52] of 0.0234 µM, a TGI [52] of 0.135 µM and a GI50 [53] of 0.0112 µM. For the same molecule, the TGI [53] was 0.0347 µM, the GI50 [54] was 0.0285 µM and the TGI [54] was 2.43 µM. The GI50 [55] was < 0.01 µM, the TGI [55] was 0.101 µM and the GI50 [56] was 0.0341 µM. For the same molecule, the TGI [56] was 0.24 µM, the GI50 [57] was 0.045 µM and the TGI [57] was 0.193 µM. It also gave a GI50 [58] of 0.0412 µM and a TGI [58] of 0.15 µM.
